For orientation: IC50 means the concentration at which inhibition is half-maximal. Low values mean inhibition by little substance, high ones a need for much substance. One may read the bioavailability as the share of a dose that reaches the circulation, judged against a reference dose that is usually intravenous. The low end stands for little systemic uptake, the high end for much systemic uptake. As a reminder, the AUC is the area under the concentration-time curve, a measure of exposure. A low value points to less exposure. What is called solubility is the dissolved amount per volume that the medium holds. Read a high solubility as a readily soluble substance.

The source of these data is PMC7287953, “Potential Therapeutic Targeting of Coronavirus Spike Glycoprotein Priming” (Molecules, 2020).

Series [1] concerns the target T1, furin (Homo sapiens, UniProt P09958).
T1 construct: made in house
The experiment in a line: Inhibition of furin activity, fluorescent substrate Pyr-RTKR-AMC. The series is classed as biochemical.

Series [2] deals with SARS-CoV2 surrogate viral particles. The settings on record: human cells; cited from earlier work.
The target in series [3] is T2, hPC1/3 (Homo sapiens, UniProt P29120).
T2 sequence (P29120 111-753): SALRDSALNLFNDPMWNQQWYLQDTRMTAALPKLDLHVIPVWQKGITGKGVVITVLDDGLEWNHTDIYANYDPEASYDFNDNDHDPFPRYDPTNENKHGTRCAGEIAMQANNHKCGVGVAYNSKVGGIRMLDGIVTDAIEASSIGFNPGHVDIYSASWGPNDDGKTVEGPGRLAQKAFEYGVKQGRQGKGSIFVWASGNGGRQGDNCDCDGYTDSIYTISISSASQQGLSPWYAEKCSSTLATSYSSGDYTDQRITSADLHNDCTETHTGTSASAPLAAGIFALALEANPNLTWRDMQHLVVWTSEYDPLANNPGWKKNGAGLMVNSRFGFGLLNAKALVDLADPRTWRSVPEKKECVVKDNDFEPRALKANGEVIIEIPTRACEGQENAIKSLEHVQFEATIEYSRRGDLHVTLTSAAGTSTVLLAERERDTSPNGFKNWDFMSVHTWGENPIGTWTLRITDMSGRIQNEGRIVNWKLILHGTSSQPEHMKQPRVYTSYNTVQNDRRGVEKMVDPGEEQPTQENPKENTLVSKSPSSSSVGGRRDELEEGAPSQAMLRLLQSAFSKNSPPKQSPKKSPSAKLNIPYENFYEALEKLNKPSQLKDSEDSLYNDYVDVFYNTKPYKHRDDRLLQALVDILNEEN
In words: Inhibition of hPC1/3 activity, fluorescent substrate Pyr-RTKR-AMC. The series is classed as biochemical.

Series [4] concerns the target T3, hPC2 (Homo sapiens, UniProt P16519).
T3 sequence (P16519 110-638): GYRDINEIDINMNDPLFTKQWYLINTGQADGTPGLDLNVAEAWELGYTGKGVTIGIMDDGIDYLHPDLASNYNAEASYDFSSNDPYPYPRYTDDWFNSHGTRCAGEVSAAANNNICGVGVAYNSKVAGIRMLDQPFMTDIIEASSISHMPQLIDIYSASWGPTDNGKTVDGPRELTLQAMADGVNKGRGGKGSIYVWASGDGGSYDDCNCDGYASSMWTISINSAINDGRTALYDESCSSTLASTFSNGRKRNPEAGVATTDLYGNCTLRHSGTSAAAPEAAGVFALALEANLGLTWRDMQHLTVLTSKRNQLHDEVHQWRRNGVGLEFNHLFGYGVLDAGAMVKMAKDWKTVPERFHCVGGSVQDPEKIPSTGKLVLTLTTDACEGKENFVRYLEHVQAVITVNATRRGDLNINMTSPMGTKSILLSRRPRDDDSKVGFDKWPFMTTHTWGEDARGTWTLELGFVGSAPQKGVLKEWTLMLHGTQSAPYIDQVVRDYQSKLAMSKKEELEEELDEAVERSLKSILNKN
The experiment in a line: Specificity for furin-like PCs: hPC2 inhibition. The series is classed as biochemical. As to conditions: Table S2.

In series [5] the target is T4, hPC7 (Homo sapiens, UniProt Q16549).
T4 sequence (Q16549 142-785): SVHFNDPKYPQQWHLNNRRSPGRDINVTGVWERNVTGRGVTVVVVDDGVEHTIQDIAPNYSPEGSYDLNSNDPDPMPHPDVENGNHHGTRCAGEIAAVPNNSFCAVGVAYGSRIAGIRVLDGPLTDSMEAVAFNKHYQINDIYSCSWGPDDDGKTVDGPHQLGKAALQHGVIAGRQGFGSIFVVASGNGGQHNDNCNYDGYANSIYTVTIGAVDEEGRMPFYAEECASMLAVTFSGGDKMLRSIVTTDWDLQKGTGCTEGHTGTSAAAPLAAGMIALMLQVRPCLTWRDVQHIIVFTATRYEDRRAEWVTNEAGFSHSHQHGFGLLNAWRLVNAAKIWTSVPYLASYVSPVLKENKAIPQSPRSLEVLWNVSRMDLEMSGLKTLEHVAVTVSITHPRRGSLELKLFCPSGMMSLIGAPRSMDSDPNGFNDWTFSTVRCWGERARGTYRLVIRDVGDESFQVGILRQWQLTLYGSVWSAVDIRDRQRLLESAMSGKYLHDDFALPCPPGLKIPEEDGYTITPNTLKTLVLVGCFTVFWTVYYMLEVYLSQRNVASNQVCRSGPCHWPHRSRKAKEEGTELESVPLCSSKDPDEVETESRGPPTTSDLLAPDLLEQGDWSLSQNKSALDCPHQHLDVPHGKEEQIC
The experiment in a line: Specificity for furin-like PCs: hPC7 inhibition. The series is classed as biochemical. As to conditions: Table S2.

Series [6] deals with T5, trypsin from bovine pancreas (Bos taurus, UniProt P00760).
T5 construct: from tissue; host or cells: bovine pancreas
T5 sequence (P00760 24-246): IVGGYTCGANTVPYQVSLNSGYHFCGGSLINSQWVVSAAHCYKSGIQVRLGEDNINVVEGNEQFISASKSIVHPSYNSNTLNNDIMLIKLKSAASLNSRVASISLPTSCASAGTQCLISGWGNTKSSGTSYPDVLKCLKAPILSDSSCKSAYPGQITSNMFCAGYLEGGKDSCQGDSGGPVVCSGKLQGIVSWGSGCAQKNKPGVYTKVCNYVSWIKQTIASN
The experiment in a line: Inhibition of trypsin from bovine pancreas. Type of series: biochemical. The settings on record: at 10 µM; trypsin as model enzyme for TMPRSS2.

Series [7] has as its system RAW 264.7 murine monocyte macrophages. The series is classed as cell-based.
The test system of series [8] is anthrax toxin LF/PA. Set-up: species or system Balb/c mice. The settings on record: mouse, in vivo.
For series [9] the following is noted: mouse, in vivo, 30 mg/kg.
The nature of series [10]: in vivo. The settings on record: mouse.
Series [11] can be described thus: physchem. As to conditions: 25 °C, pH 7.2, aqueous buffer.
Series [12] can be described thus: Plasma stability by LCMS. The settings on record: rat plasma, after 60 min incubation.
The nature of series [13]: Toxicity study, I.P. dosing and blood chemistry.

Where “and” joins values, the source holds several entries; their conditions need not be identical. Equal entries are not always repeated. Where two headings read alike, the source gives them in different places. A value given as a limit tells only on which side of the number the result lay.

T1 sequence (P09958 108-794): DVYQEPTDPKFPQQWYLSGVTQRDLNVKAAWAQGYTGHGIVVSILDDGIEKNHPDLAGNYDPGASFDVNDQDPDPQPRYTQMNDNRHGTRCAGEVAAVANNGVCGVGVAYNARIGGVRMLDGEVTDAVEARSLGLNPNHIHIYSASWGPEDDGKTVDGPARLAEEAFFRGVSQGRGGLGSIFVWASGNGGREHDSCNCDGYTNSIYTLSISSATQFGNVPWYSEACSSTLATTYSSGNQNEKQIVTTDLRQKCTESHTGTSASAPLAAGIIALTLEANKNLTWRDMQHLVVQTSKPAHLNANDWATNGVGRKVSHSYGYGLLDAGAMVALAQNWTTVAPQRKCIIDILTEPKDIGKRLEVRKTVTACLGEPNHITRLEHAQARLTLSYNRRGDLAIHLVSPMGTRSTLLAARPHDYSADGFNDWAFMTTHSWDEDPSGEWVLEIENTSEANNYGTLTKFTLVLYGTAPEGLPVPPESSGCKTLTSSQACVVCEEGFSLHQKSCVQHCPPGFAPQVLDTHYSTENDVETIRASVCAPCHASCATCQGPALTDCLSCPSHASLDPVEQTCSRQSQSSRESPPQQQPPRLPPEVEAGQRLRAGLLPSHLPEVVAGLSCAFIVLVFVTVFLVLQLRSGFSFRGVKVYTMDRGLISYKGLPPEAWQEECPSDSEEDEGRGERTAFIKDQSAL

For `CN(C)C(=O)COC(=O)Cc1ccc(OC(=O)c2ccc(NC(=N)N)cc2)cc1` [camostat], the “inhibition of furin (in words)” value in series [1] was “poor furin inhibitor”; in series [1] (listed as camostat mesylate), “did not appreciably inhibit furin”. For the same compound, the “concentrations that attenuated (only partially) entry of SARS-CoV2 surrogate viral particles” value in series [2] is 10 to 50 µM.

Turning to `CC(=O)N[C@@H](CCCNC(=N)N)C(=O)N[C@H](C(=O)N[C@@H](Cc1ccc(N=C(N)N)cc1)C(=O)NCc1ccc(C(=N)N)cc1)C(C)C` [compound 1], the IC50 stood at 0.009 µM in series [1], 0.003 µM in series [3], 1.86 µM in series [4] and 11.8 µM in [5]. The inhibition of trypsin result in series [6] is recorded as “can inhibit this enzyme”. Moreover, in [7], the “EC50 protection of RAW macrophages from LF/PA-induced cell death” value is listed as “low micromolar range”. Also, in [8], the “MST (median survival time)” value was 31.5 h and 52.5 h. For the same compound, the “TTD (time to death)” value in [8] is 48 h and 96 h. Also, the “absorption after oral administration (in words)” value in series [9] is reported as “insignificant adsorption”. In addition, the bioavailability in [10] (%F I.P./I.V.) was around 100%; in series [10] (%F P.O./I.V.) it was below 1%. Also, the AUC in [10] (ip, 3 mg/kg) came out at 2600 ng·h/mL; in series [10] (iv, 1 mg/kg) it was 870 ng·h/mL; in series [10] (po, 30 mg/kg), 26 ng·h/mL. The same compound returned a solubility in series [11] above 1000 µM. Moreover, the “plasma stability, intact” value in series [12] is given as above 86%. For the same compound, the “other blood chemistry values” in series [13] (5 min after single 20 mg/kg injection) is “normal”. In addition, the “acute toxicity, blood chemistry finding” value in [13] (5 min after single 20 mg/kg injection, compared to control group) is “gross hemolysis”. Further, in series [13] (female, Balb/c, mouse, in vivo, ip), the MTD was around 10 mg/kg. In addition, the mice that died result is listed as “all mice” in series [13] (single dose 15 mg/kg I.P., 1 h after compound administration) and 2 out of 3 in [13] (single dose 20 mg/kg I.P., 15 min after compound injection).
